Data reported in article PMC6112376, “Comprehensive Analyses and Prioritization of Tox21 10K Chemicals Affecting Mitochondrial Function by in-Depth Mechanistic Studies” (Environmental Health Perspectives, 2018).
Read-outs that look alike come from different tables or passages of the source.

Tests used:
HepG2 cells [1] = test: cells; details: Homo sapiens; for IC50: HepG2, read-out: MMP assays IC50 (µM) HepG2; for Emax: HepG2, read-out: MMP assays efficacy (%) HepG2
rat primary hepatocytes [2] = tested on: rat primary hepatocytes
rat primary hepatocytes [3] = test: MMP assay in rat primary hepatocytes; details: for IC50: Rattus norvegicus, Hepatocyte, read-out: MMP assays IC50 (µM) Rat Hepatocytes
HepG2 cells [4] = details: cited from earlier work; for IC50: read-out: MMP assays IC50 (µM) qHTS-HepG2

Compound	IC50 (HepG2 cells [1])	Emax (HepG2 cells [1])	MMP assays efficacy (%) Rat Hepatocytes (rat primary hepatocytes [2])	IC50 (rat primary hepatocytes [3])	MMP assays efficacy (%) qHTS-HepG2 (HepG2 cells [4])	IC50 (HepG2 cells [4])	MMP assays IC50 (µM) Rat Hepatocytes (rat primary hepatocytes [3])
O=C1c2ccccc2C(=O)c2cc(O)ccc21 [Compound 2-Hydroxyanthraquinone]	7.08 µM	120%	-68±21%	17.3 ± 6.83 µM	-124±4%	3.31 ± 1.38 µM	–
Oc1ccc2ccccc2c1 [Compound 2-Naphthalenol]	35.5 µM	81%	-56±17%	42.2 ± 19.8 µM	-107±7%	50.1 ± 16 µM	–
O=[N+]([O-])c1ccc2c(c1)Cc1ccccc1-2 [Compound 2-Nitrofluorene]	50.1 µM	41%	-57±0%	38.1 ± 9.22 µM	-53±5%	12.2 ± 0.86 µM	–
Oc1ccccc1-c1ccccc1 [Compound 2-Phenylphenol]	28.2 µM	108%	-75±20%	53.2 ± 4.32 µM	-97±7%	17.9 ± 1.41 µM	–
Cc1ccc2cc3c(ccc4ccccc43)c3c2c1CC3 [Compound 3-Methylcholanthrene]	25.2 µM	66%	inactive	–	-74±19%	17.3 ± 13.2 µM	inactive
Oc1ccc(Cc2ccccc2)cc1 [Compound 4-Benzylphenol]	31.6 µM	118%	inactive	–	-124±22%	15.9 ± 3.38 µM	inactive
CC(C)(c1ccccc1)c1ccc(O)cc1 [Compound 4-Cumylphenol]	3.55 µM	108%	-77±17%	48 ± 11.6 µM	-103±17%	3.7 ± 0.82 µM	–
CCCCCCCCCCCCc1ccc(O)cc1 [Compound 4-Dodecylphenol]	5.01 µM	102%	-53±17%	25.1 ± 21.8 µM	-96±3%	3.18 ± 0.58 µM	–
O=[N+]([O-])c1ccc(Nc2ccccc2)cc1 [Compound 4-Nitro-N-phenylaniline]	8.91 µM	94%	-93±7%	23.9 ± 7.05 µM	-99±15%	7.43 ± 6.54 µM	–
O=Nc1ccc(O)cc1 [Compound 4-Nitrosophenol]	15.8 µM	61%	inactive	–	-87±9%	4.71 ± 2.31 µM	inactive
Oc1ccc(Oc2ccccc2)cc1 [Compound 4-Phenoxyphenol]	47.6 µM	104%	inactive	–	-106±22%	28 ± 10.6 µM	inactive
O=[N+]([O-])c1ccc2c3c(cccc13)CC2 [Compound 5-Nitroacenaphthene]	56.2 µM	50%	-78±25%	24 ± 16.2 µM	-82±23%	34.4 ± 20.4 µM	–
C[C@]12CCC(=O)C[C@@H]1CC[C@@H]1[C@@H]2CC[C@]2(C)[C@@H](O)CC[C@@H]12 [Compound 5alpha-Dihydrotestosterone]	17.3 µM	45%	inactive	–	-72±9%	13.3 ± 6.16 µM	inactive
O=[N+]([O-])c1c2ccccc2cc2ccccc12 [Compound 9-Nitroanthracene]	35.5 µM	88%	-74±29%	33 ± 4.21 µM	-87±19%	21.4 ± 12.8 µM	–
C[C@]12CC[C@@H]3c4ccc(O)cc4CC[C@H]3[C@@H]1CC[C@H]2O [Compound 17alpha-Estradiol]	22.4 µM	105%	-64±3%	35.5 µM	-106±11%	37.8 ± 13.9 µM	–
C#C[C@]1(O)CC[C@H]2[C@@H]3CCc4cc(O)ccc4[C@H]3CC[C@@]21C [Compound 17alpha-Ethinylestradiol]	15.5 µM	107%	-42±1%	18.4 ± 1.5 µM	-95±9%	19.1 ± 5.99 µM	–

Compound	IC50 (HepG2 cells [1])	Emax (HepG2 cells [1])	MMP assays efficacy (%) Rat Hepatocytes (rat primary hepatocytes [2])	IC50 (rat primary hepatocytes [3])	MMP assays efficacy (%) qHTS-HepG2 (HepG2 cells [4])	IC50 (HepG2 cells [4])	MMP assays IC50 (µM) Rat Hepatocytes (rat primary hepatocytes [3])
O=c1oc2ccccc2c(O)c1C1CCCc2ccccc21 (stereo not drawn) [Coumatetralyl]	35.5 µM	124%	-110±37%	13.8 ± 8.1 µM	-144±2%	13.7 ± 4.84 µM	–
COc1cc(/C=C/C(=O)CC(=O)/C=C/c2ccc(O)c(OC)c2)ccc1O [Curcumin]	2.51 µM	96%	-116±37%	11.6 ± 9.87 µM	-103±16%	1.31 ± 1.03 µM	–
O=C1c2cccc(O)c2C(=O)c2c(O)cccc21 [Danthron]	15.5 µM	91%	-40±18%	5.97 ± 5.35 µM	-78±3%	4.66 ± 1.19 µM	–
O=C1CN(/N=C/c2ccc(-c3ccc([N+](=O)[O-])cc3)o2)C(O)=N1 [Dantrolene sodium]	3.46 µM	73%	-108±32%	15.5 ± 1.78 µM	-85±8%	4.35 ± 1.73 µM	–
CC1(C)[C@H](C(=O)O[C@H](C#N)c2cccc(Oc3ccccc3)c2)[C@@H]1C=C(Br)Br [Deltamethrin]	50.1 µM	93%	-65±42%	39.8 ± 14.2 µM	-75±5%	45.9 ± 17.9 µM	–
C[C@H]1O[C@@H](O[C@H]2CC[C@@]3(C)[C@H](CC[C@@H]4[C@@H]3C[C@@H](O)[C@]3(C)[C@@H](C5=CC(=O)OC5)CC[C@]43O)C2)C[C@H](O)[C@@H]1O[C@H]1C[C@H](O)[C@H](O[C@H]2C[C@H](O)[C@H](O[C@@H]3O[C@H](CO)[C@@H](O)[C@H](O)[C@H]3O)[C@@H](C)O2)[C@@H](C)O1 [Deslanoside]	0.44 µM	97%	inactive	–	-81±14%	1.84 ± 0.23 µM	inactive
C#C[C@]1(O)CC[C@H]2[C@@H]3CCC4=CCCC[C@@H]4[C@H]3C(=C)C[C@@]21CC [Desogestrel]	27.5 µM	84%	inactive	–	-125±21%	22.3 ± 2.11 µM	inactive
CN1C(=O)[C@@H](NC(=O)c2cc3ccccc3[nH]2)N=C(c2ccccc2)c2ccccc21 [Devazepide]	10.9 µM	63%	-50±14%	15.6 ± 7.19 µM	-81±7%	12.5 ± 5.62 µM	–
CCCCC(=O)O[C@]1(C(=O)CO)[C@H](C)C[C@H]2[C@@H]3CCC4=CC(=O)C=C[C@]4(C)[C@@]3(F)[C@@H](O)C[C@@]21C [Dexamethasone valerate]	17.3 µM	114%	-66±25%	23.5 ± 5.67 µM	-74±6%	12.1 ± 4.39 µM	–
CN(C)S(=O)(=O)N(SC(F)(Cl)Cl)c1ccccc1 [Dichlofluanid]	25.1 µM	99%	-59±33%	23 ± 29.5 µM	-105±5%	5.24 ± 1.99 µM	–
Cl[Si](Cl)(c1ccccc1)c1ccccc1 [Dichlorodiphenylsilane]	22.4 µM	109%	inactive	–	-106±4%	13 ± 9.66 µM	inactive
OC(c1ccc(Cl)cc1)(c1ccc(Cl)cc1)C(Cl)(Cl)Cl [Dicofol]	8.91 µM	101%	-122±51%	24.6 ± 9.27 µM	-98±4%	9.69 ± 3.51 µM	–
C(=NC1CCCCC1)=NC1CCCCC1 [Dicyclohexylcarbodiimide]	0.0178 µM	39%	inactive	–	-69±18%	0.3 ± 0.2 µM	inactive
C/C=C(/C(=C/C)c1ccc(O)cc1)c1ccc(O)cc1 [Dienestrol]	8.3 µM	84%	inactive	–	-98±10%	10.9 ± 1.88 µM	inactive
C[C@H]1O[C@@H](O[C@H]2[C@@H](O)C[C@H](O[C@H]3[C@@H](O)C[C@H](O[C@H]4CC[C@@]5(C)[C@H](CC[C@@H]6[C@@H]5CC[C@]5(C)[C@@H](C7=CC(=O)OC7)CC[C@]65O)C4)O[C@@H]3C)O[C@@H]2C)C[C@H](O)[C@@H]1O [Digitoxin]	0.06 µM	97%	inactive	–	-77±6%	0.16 ± 0.05 µM	inactive
C[C@H]1O[C@@H](O[C@H]2[C@@H](O)C[C@H](O[C@H]3[C@@H](O)C[C@H](O[C@H]4CC[C@@]5(C)[C@H](CC[C@@H]6[C@@H]5C[C@@H](O)[C@]5(C)[C@@H](C7=CC(=O)OC7)CC[C@]65O)C4)O[C@@H]3C)O[C@@H]2C)C[C@H](O)[C@@H]1O [Digoxin]	0.13 µM	105%	inactive	–	-71±8%	0.52 ± 0.09 µM	inactive
